According to EP0908457B1, “3-(1,2-benzisothiazol- and isoxazol-5-Y1)-2,4(1H,3H)-pyrimidinedione or thione and 3-(1,2-benzisothiazol- and isoxazol-5-y1)-4(3H)-pyrimidinone or thione herbicidal agents” (BASF AKTIENGESELLSCHAFT, priority 1997, dated 1999):

Columns and labels:
[1] = tested on: Echinochloa oryzoides (Ard.) Fritsch.; test: Preemergence weed control under flooded paddy conditions, ECHORC (Watergrass (Calif.)); type: in vivo; conditions: preemergence, flooded paddy, rated three to four weeks after treatment; also: meaning of each grade not given here
Cyperus iria [2] = test: Preemergence weed control under flooded paddy conditions, CYPIR (Rice Flatsedge); type: in vivo; conditions: preemergence, flooded paddy, rated three to four weeks after treatment; also: meaning of each grade not given here
[3] = tested on: Cyperus serotinus, Rottb.; test: Preemergence weed control under flooded paddy conditions, CYPSE (Flatsedge); type: in vivo; conditions: preemergence, rated three to four weeks after treatment; also: meaning of each grade not given here
[4] = tested on: Monochoria vaginalis, Presl.; test: Preemergence weed control under flooded paddy conditions, MOOVA (Monochoria); type: in vivo; conditions: preemergence, flooded paddy, rated three to four weeks after treatment; also: meaning of each grade not given here
Sagittaria pygmaea, L. [5] = test: Preemergence weed control under flooded paddy conditions, SAGPY (Arrowhead (Pygmaea)); type: in vivo; conditions: preemergence, flooded paddy, rated three to four weeks after treatment; also: meaning of each grade not given here
[6] = tested on: Echinochloa oryzoides (Ard.) Fritsch.; test: Postemergence weed control under flooded paddy conditions, ECHORC (Watergrass (Calif.)); type: in vivo; conditions: rated three to four weeks after treatment
Cyperus iria [7] = test: Postemergence weed control under flooded paddy conditions, CYPIR (Rice Flatsedge); type: in vivo; conditions: rated three to four weeks after treatment
[8] = tested on: Cyperus serotinus, Rottb.; test: Postemergence weed control under flooded paddy conditions, CYPSE (Flatsedge); type: in vivo; conditions: rated three to four weeks after treatment
[9] = tested on: Monochoria vaginalis, Presl.; test: Postemergence weed control under flooded paddy conditions, MOOVA (Monochoria); type: in vivo; conditions: rated three to four weeks after treatment
Sagittaria pygmaea, L. [10] = test: Postemergence weed control under flooded paddy conditions, SAGPY (Arrowhead (Pygmaea)); type: in vivo; conditions: rated three to four weeks after treatment
[11] = tested on: Oryza sativa, (L.) Tebonnet; test: Rice tolerance to post-transplant applications under flooded paddy conditions (Example 187), ORYSAT (Rice, Tebonnet); conditions: rated three to four weeks after treatment; as to herbicidal effect rating ORYSAT: meaning of each grade not given here
[12] = tested on: Oryza sativa, (L.) Tebonnet; test: Rice tolerance to post-transplant applications under flooded paddy conditions (Example 188), ORYSAT (Rice, Tebonnet); conditions: rated three to four weeks after treatment

CON(C)C(=O)COc1ccccc1-c1nsc2ccc(-n3c(=O)cc(C(F)(F)F)n(C)c3=O)cc12 [Example 354, Acetamide, 2-{o-{5-[3,6-dihydro-3-methyl-2,6-dioxo-4-(trifluoromethyl)-1(2H)-pyrimidinyl]-1,2-benzisothiazol-3-yl}phenoxy}-N-methoxy-N-methyl-]
6.3: herbicidal effect rating, SAGPY (Sagittaria pygmaea, L. [5]; Rate 0.0320 kg/ha)
8.3: herbicidal effect rating, CYPIR (Cyperus iria [2]; Rate 0.0320 kg/ha)
0.0: herbicidal effect rating, SAGPY (Sagittaria pygmaea, L. [10]; Rate 0.0320 kg/ha)
4.0: herbicidal effect rating, ECHORC ([6]; Rate 0.0320 kg/ha)
8.0: herbicidal effect rating, CYPSE ([3]; Rate 0.0320 kg/ha) | herbicidal effect rating ORYSAT ([11]; Rate 0.0620 kg/ha)
7.0: herbicidal effect rating, ECHORC ([6]; Rate 0.0620 kg/ha)
6.0: herbicidal effect rating, MOOVA ([9]; Rate 0.0320 kg/ha) | herbicidal effect rating, ORYSAT (rice tolerance) ([12]; Rate 0.0620 kg/ha) | herbicidal effect rating, ORYSAT (rice tolerance) ([12]; Rate 0.1250 kg/ha)
1.0: herbicidal effect rating, CYPSE ([8]; Rate 0.0320 kg/ha)
9.0: herbicidal effect rating, ECHORC ([1]; Rate 0.0320 kg/ha) | herbicidal effect rating, ECHORC ([1]; Rate 0.0620 kg/ha) | herbicidal effect rating, ECHORC ([1]; Rate 0.1250 kg/ha) | herbicidal effect rating, ECHORC ([1]; Rate 0.2500 kg/ha) | herbicidal effect rating, CYPIR (Cyperus iria [2]; Rate 0.0620 kg/ha) | herbicidal effect rating, CYPIR (Cyperus iria [2]; Rate 0.1250 kg/ha) | herbicidal effect rating, CYPIR (Cyperus iria [2]; Rate 0.2500 kg/ha) | herbicidal effect rating, CYPSE ([3]; Rate 0.0620 kg/ha) | herbicidal effect rating, CYPSE ([3]; Rate 0.1250 kg/ha) | herbicidal effect rating, CYPSE ([3]; Rate 0.2500 kg/ha) | herbicidal effect rating, MOOVA ([4]; Rate 0.0320 kg/ha) | herbicidal effect rating, MOOVA ([4]; Rate 0.0620 kg/ha) | herbicidal effect rating, MOOVA ([4]; Rate 0.1250 kg/ha) | herbicidal effect rating, MOOVA ([4]; Rate 0.2500 kg/ha) | herbicidal effect rating, SAGPY (Sagittaria pygmaea, L. [5]; Rate 0.0620 kg/ha) | herbicidal effect rating, SAGPY (Sagittaria pygmaea, L. [5]; Rate 0.1250 kg/ha) | herbicidal effect rating, SAGPY (Sagittaria pygmaea, L. [5]; Rate 0.2500 kg/ha) | herbicidal effect rating, ECHORC ([6]; Rate 0.1250 kg/ha) | herbicidal effect rating, CYPIR (Cyperus iria [7]; Rate 0.0620 kg/ha) | herbicidal effect rating, CYPIR (Cyperus iria [7]; Rate 0.1250 kg/ha) | herbicidal effect rating, CYPSE ([8]; Rate 0.1250 kg/ha) | herbicidal effect rating, MOOVA ([9]; Rate 0.0620 kg/ha) | herbicidal effect rating, MOOVA ([9]; Rate 0.1250 kg/ha) | herbicidal effect rating, SAGPY (Sagittaria pygmaea, L. [10]; Rate 0.1250 kg/ha) | herbicidal effect rating ORYSAT ([11]; Rate 0.1250 kg/ha) | herbicidal effect rating ORYSAT ([11]; Rate 0.2500 kg/ha)
2.0: herbicidal effect rating, CYPSE ([8]; Rate 0.0620 kg/ha) | herbicidal effect rating, SAGPY (Sagittaria pygmaea, L. [10]; Rate 0.0620 kg/ha)
7.3: herbicidal effect rating ORYSAT ([11]; Rate 0.0320 kg/ha)

COc1cc(C)ccc1-c1nsc2ccc(-n3c(=O)cc(C(F)(F)F)n(C)c3=O)cc12 [Example 7, 3-[3-(2-Methoxy-p-tolyl)-1,2-benzisothiazol-5-yl]-1-methyl-6-(trifluoromethyl)-2,4(1H,3H)-pyrimidinedione]
2.0: herbicidal effect rating, CYPSE ([8]; Rate 0.0313 kg/ha) | herbicidal effect rating, SAGPY (Sagittaria pygmaea, L. [10]; Rate 0.0625 kg/ha)
6.0: herbicidal effect rating, SAGPY (Sagittaria pygmaea, L. [5]; 0.0313 kg/ha) | herbicidal effect rating, CYPSE ([8]; Rate 0.0625 kg/ha) | herbicidal effect rating, ORYSAT (rice tolerance) ([11]; 0.0313 kg/ha)
7.0: herbicidal effect rating, CYPSE ([3]; 0.0313 kg/ha) | herbicidal effect rating, CYPSE ([3]; 0.0625 kg/ha) | herbicidal effect rating, CYPSE ([3]; 0.2500 kg/ha) | herbicidal effect rating, ORYSAT (rice tolerance) ([11]; 0.1250 kg/ha) | herbicidal effect rating, ORYSAT (rice tolerance) ([11]; 0.2500 kg/ha) | herbicidal effect rating, ORYSAT (rice tolerance) ([12]; Rate 0.0313 kg/ha) | herbicidal effect rating, ORYSAT (rice tolerance) ([12]; Rate 0.0625 kg/ha) | herbicidal effect rating, ORYSAT (rice tolerance) ([12]; Rate 0.1250 kg/ha) | herbicidal effect rating, ORYSAT (rice tolerance) ([12]; Rate 0.2500 kg/ha)
9.0: herbicidal effect rating, ECHORC ([1]; 0.0313 kg/ha) | herbicidal effect rating, ECHORC ([1]; 0.0625 kg/ha) | herbicidal effect rating, ECHORC ([1]; 0.1250 kg/ha) | herbicidal effect rating, ECHORC ([1]; 0.2500 kg/ha) | herbicidal effect rating, ECHORC ([1]; 0.5000 kg/ha) | herbicidal effect rating, CYPIR (Cyperus iria [2]; 0.0313 kg/ha) | herbicidal effect rating, CYPIR (Cyperus iria [2]; 0.0625 kg/ha) | herbicidal effect rating, CYPIR (Cyperus iria [2]; 0.1250 kg/ha) | herbicidal effect rating, CYPIR (Cyperus iria [2]; 0.2500 kg/ha) | herbicidal effect rating, CYPIR (Cyperus iria [2]; 0.5000 kg/ha) | herbicidal effect rating, CYPSE ([3]; 0.5000 kg/ha) | herbicidal effect rating, MOOVA ([4]; 0.0313 kg/ha) | herbicidal effect rating, MOOVA ([4]; 0.0625 kg/ha) | herbicidal effect rating, MOOVA ([4]; 0.1250 kg/ha) | herbicidal effect rating, MOOVA ([4]; 0.2500 kg/ha) | herbicidal effect rating, MOOVA ([4]; 0.5000 kg/ha) | herbicidal effect rating, SAGPY (Sagittaria pygmaea, L. [5]; 0.1250 kg/ha) | herbicidal effect rating, SAGPY (Sagittaria pygmaea, L. [5]; 0.2500 kg/ha) | herbicidal effect rating, SAGPY (Sagittaria pygmaea, L. [5]; 0.5000 kg/ha) | herbicidal effect rating, ECHORC ([6]; Rate 0.0313 kg/ha) | herbicidal effect rating, ECHORC ([6]; Rate 0.0625 kg/ha) | herbicidal effect rating, ECHORC ([6]; Rate 0.1250 kg/ha) | herbicidal effect rating, ECHORC ([6]; Rate 0.2500 kg/ha) | herbicidal effect rating, ECHORC ([6]; Rate 0.5000 kg/ha) | herbicidal effect rating, CYPIR (Cyperus iria [7]; Rate 0.0313 kg/ha) | herbicidal effect rating, CYPIR (Cyperus iria [7]; Rate 0.0625 kg/ha) | herbicidal effect rating, CYPIR (Cyperus iria [7]; Rate 0.1250 kg/ha) | herbicidal effect rating, CYPIR (Cyperus iria [7]; Rate 0.2500 kg/ha) | herbicidal effect rating, CYPIR (Cyperus iria [7]; Rate 0.5000 kg/ha) | herbicidal effect rating, CYPSE ([8]; Rate 0.1250 kg/ha) | herbicidal effect rating, CYPSE ([8]; Rate 0.2500 kg/ha) | herbicidal effect rating, MOOVA ([9]; Rate 0.0313 kg/ha) | herbicidal effect rating, MOOVA ([9]; Rate 0.0625 kg/ha) | herbicidal effect rating, MOOVA ([9]; Rate 0.1250 kg/ha) | herbicidal effect rating, MOOVA ([9]; Rate 0.2500 kg/ha) | herbicidal effect rating, MOOVA ([9]; Rate 0.5000 kg/ha) | herbicidal effect rating, SAGPY (Sagittaria pygmaea, L. [10]; Rate 0.2500 kg/ha) | herbicidal effect rating, SAGPY (Sagittaria pygmaea, L. [10]; Rate 0.5000 kg/ha) | herbicidal effect rating, ORYSAT (rice tolerance) ([11]; 0.5000 kg/ha)
8.0: herbicidal effect rating, CYPSE ([3]; 0.1250 kg/ha) | herbicidal effect rating, SAGPY (Sagittaria pygmaea, L. [5]; 0.0625 kg/ha) | herbicidal effect rating, CYPSE ([8]; Rate 0.5000 kg/ha) | herbicidal effect rating, ORYSAT (rice tolerance) ([11]; 0.0625 kg/ha) | herbicidal effect rating, ORYSAT (rice tolerance) ([12]; Rate 0.5000 kg/ha)
4.0: herbicidal effect rating, SAGPY (Sagittaria pygmaea, L. [10]; Rate 0.1250 kg/ha)
0.0: herbicidal effect rating, SAGPY (Sagittaria pygmaea, L. [10]; Rate 0.0313 kg/ha)
